Assay results reported in patent publication US9328106B2, “Cyclic ether pyrazol-4-yl-heterocyclyl-carboxamide compounds and methods of use” (Genentech, Inc., priority 2012, dated 2016).
Read-outs that look alike come from different tables or passages of the source.

Legend:
BaF3 parental cells = assay: In vitro cell proliferation, BaF3 parental line + IL3; type: cell-based, murine; conditions: Mus musculus, BaF3, BaF3 parental, mIL-3, incubated overnight, CELL TITER GLO; read-out: Prolif BaF3 IL3 (IC50);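 further: BaF3 parental cells are murine IL-3 dependent pro-B cells grown with 2 ng/mL mIL-3, 384-well format, viability read by luminescence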
BaF3 PIM1 cells = assay: In vitro cell proliferation, BaF3 transfected with PIM1; type: cell-based, murine; conditions: Mus musculus;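 further: murine IL-3-dependent pro-B BaF3 cells transfected with PIM1, compound exposure overnight at 37 °C under 5% CO2, viability read as luminescence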
[1] = system: MM1.S (multiple myeloma) cells; assay: In vitro cell proliferation, MM1.S multiple myeloma cells; type: cell-based; conditions: Homo sapiens, MM1.S, 72 h, MM1.S cells, 72 hours, CELL TITER GLO; read-out: Prolif MM1S ATP (EC50);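 further: cells cultured in RPMI with 10% FBS and 2 mM L-Glutamine, seeded in 384-well plates, exposed to compound, cell viability measured by luminescence after CellTiter-Glo addition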
Procedure: BaF3 parental line was obtained from the DSMZ repository. […] Media for BaF3 parental line contained RPMI, 10% FBS, 2 mM L-Glutamine, 2 ng/mL mIL-3. Media for BaF3 PIM1 & 2 lines contained RPMI, 10% FBS, 2 mM L-Glutamine, 250 μg/mL. Media for MM1.S (multiple myeloma cells) line contained RPMI, 10% FBS, 2 mM L-Glutamine.
BaF3, a murine interleukin-3 dependent pro-B cell line, parental cells, BaF3 PIM1 cells, BaF3 PIM2 cells, and MM1.S (multiple myeloma) cells were seeded at 2 k/well, 5 k/well, 5 k/well, and 10 k/well respectively, in a 384-well plate, at 45 μL/well. Test compound was added at 5 μL/well. BaF3 cells (parental and transfected) were incubated overnight, while MM1.S cells were incubated for 72 hours at 37° C., 5% CO2. CELL TITER GLO® Reagent (Promega) was added at 50 μL/well, the plates were incubated for 30 minutes, and their luminescence read on an HT Analyst. IC50/EC50 values for the test compound were calculated.

PIM1 = PIM1 (Homo sapiens (Human), UniProt P11309); assay: biochemical; type: biochemical
Sequence of PIM1 (P11309 whole entry): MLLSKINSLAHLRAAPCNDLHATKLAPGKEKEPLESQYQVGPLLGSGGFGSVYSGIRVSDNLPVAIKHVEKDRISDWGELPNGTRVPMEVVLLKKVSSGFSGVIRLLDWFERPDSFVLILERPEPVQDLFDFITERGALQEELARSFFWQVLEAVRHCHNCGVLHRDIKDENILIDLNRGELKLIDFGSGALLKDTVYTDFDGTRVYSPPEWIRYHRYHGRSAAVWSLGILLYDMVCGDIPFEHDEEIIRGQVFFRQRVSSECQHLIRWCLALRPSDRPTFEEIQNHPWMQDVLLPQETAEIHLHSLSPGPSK
Procedure: Reaction Buffer contained 10 mM HEPES, pH 7.2, 10 mM MgCl2, 0.01% Tween 20, 2 mM DTT. Termination Buffer contained 190 mM HEPES, pH 7.2, 0.015% Brij-35, 0.2% Coating Reagent 3 (Caliper Life Sciences, Hopkinton, Mass.), 20 mM EDTA. Separation Buffer contained 100 mM HEPES, pH 7.2, 0.015% Brij-35, 0.1% Coating Reagent 3, 1:200 Coating Reagent 8 (Caliper Life Sciences, Hopkinton, Mass.), 10 mM EDTA and 5% DMSO.
PIM reactions were carried out in a final volume of 10 μL per well in a 384-well plate. […] After 90 minutes of incubation at room temperature, the phosphorylation reaction was stopped by the addition of 10 μL Termination Buffer. The product and substrate in each independent reaction were separated on a 12-sipper microfluidic chip (Caliper Life Sciences, Hopkinton, Mass.) run on a Caliper LC3000® (Caliper Life Sciences, Hopkinton, Mass.). The separation of product and substrate was optimized by choosing voltages and pressure using Caliper's Optimizer software (Hopkinton, Mass.). The separation conditions used a downstream voltage of −500V, an upstream voltage of −2150V, and a screening pressure of −1.2 psi. […] Substrate conversion was calculated from the electropherogram using HTS Well Analyzer software (Caliper Life Sciences, Hopkinton, Mass.). Ki values for the test compound were calculated.

[2] = BaF3 PIM1 cells, incubated overnight, CELL TITER GLO, read-out: Prolif BaF3 PIM1 (IC50)
[3] = 20 pM PIM1, 1 μM FAM-peptide, 10 μM ATP, 90 minutes at room temperature, read-out: PIM1 LC3K (KI)
[4] = BaF3, read-out: Prolif BaF3 PIM1 (IC50), BaF3 PIM1 cells, incubated overnight, CELL TITER GLO

C[C@@H]1O[C@H](c2c(NC(=O)c3ccc(F)c(-c4c(F)cccc4F)n3)cnn2C)C[C@H](N)[C@@]1(C)O [Example 344, N-(5-((2S,4S,5R,6S)-4-amino-5-hydroxy-5,6-dimethyltetrahydro-2H-pyran-2-yl)-1-methyl-1H-pyrazol-4-yl)-6-(2,6-difluorophenyl)-5-fluoropicolinamide]
IC50 (BaF3 parental cells): 14000 nM
IC50 (BaF3 PIM1 cells; [2]): 9000 nM
EC50 [1]: 9800 nM

Cn1ncc(NC(=O)c2csc(-c3n[nH]c4c3CCCC4)n2)c1[C@@H]1CC[C@@H](N)[C@H](F)CO1 [Example 374, N-(5-((2S,5R,6S)-5-amino-6-fluorooxepan-2-yl)-1-methyl-1H-pyrazol-4-yl)-2-(4,5,6,7-tetrahydro-1H-indazol-3-yl)thiazole-4-carboxamide]
Ki (PIM1; [3]): 0.023 nM
IC50 (BaF3 parental cells): 13100 nM

C[C@H]1O[C@@H](c2c(NC(=O)c3nc(-c4c(F)cccc4F)sc3N)cnn2C)C[C@@H](N)[C@]1(C)O (single isomer, unassigned) [Example 345]
IC50 (BaF3 parental cells): > 25000 nM
IC50 (BaF3 PIM1 cells; [2]): 6800 nM
EC50 [1]: > 25000 nM

Cn1ncc(NC(=O)c2nc(-c3c(F)cccc3F)sc2N)c1[C@@]12CC[C@H](N)[C@@H](CC1)O2 [Example 117, 5-amino-N-(5-((1R,4S,5R)-4-amino-8-oxabicyclo[3.2.1]octan-1-yl)-1-methyl-1H-pyrazol-4-yl)-2-(2,6-difluorophenyl)thiazole-4-carboxamide]
IC50 (BaF3 PIM1 cells; [4]): 30.7 nM
EC50 [1]: 122 nM

C[C@H]1O[C@@H](c2c(NC(=O)c3ccc(F)c(-c4c(F)cccc4F)n3)cnn2C)C[C@@H](N)[C@]1(C)O (single isomer, unassigned) [Example 343]
IC50 (BaF3 parental cells): 12800 nM
IC50 (BaF3 PIM1 cells; [2]): 342 nM
EC50 [1]: 781 nM

Cc1nn(C)c(F)c1-c1nc(C(=O)Nc2cnn(C)c2[C@@H]2CC[C@@H](N)[C@H](F)CO2)cs1 [Example 286, N-(5-((2S,5R,6S)-5-amino-6-fluorooxepan-2-yl)-1-methyl-1H-pyrazol-4-yl)-2-(5-fluoro-1,3-dimethyl-1H-pyrazol-4-yl)thiazole-4-carboxamide]
IC50 (BaF3 parental cells): 11300 nM
IC50 (BaF3 PIM1 cells; [2]): 947 nM
EC50 [1]: 12600 nM

Cc1ccc(-c2nc(C(=O)Nc3cnn(C)c3[C@@H]3CC[C@@H](N)[C@H](F)CO3)cs2)c(F)c1 [Example 316, N-(5-((2S,5R,6S)-5-amino-6-fluorooxepan-2-yl)-1-methyl-1H-pyrazol-4-yl)-2-(2-fluoro-4-methylphenyl)thiazole-4-carboxamide]
IC50 (BaF3 parental cells): 9300 nM
IC50 (BaF3 PIM1 cells; [2]): 126 nM
EC50 [1]: 686 nM

Cn1ncc(NC(=O)c2nc(-c3c(F)cccc3F)sc2N)c1[C@]12CC[C@H](O1)[C@@H](N)CC2 [Example 115, 5-amino-N-(5-((1S,4S,5S)-4-amino-8-oxabicyclo[3.2.1]octan-1-yl)-1-methyl-1H-pyrazol-4-yl)-2-(2,6-difluorophenyl)thiazole-4-carboxamide]
IC50 (BaF3 PIM1 cells; [4]): 19.2 nM

[2H]C([2H])([2H])O[C@H]1CO[C@@H](c2c(NC(=O)c3nc(-c4c(F)cccc4F)sc3N)cnn2C)CC[C@@H]1N [Example 180, 5-Amino-N-[5-[(2R,5S,6R)-5-amino-6-(trideuteriomethoxy)oxepan-2-yl]-1-methyl-pyrazol-4-yl]-2-(2,6-difluorophenyl)thiazole-4-carboxamide]
Ki (PIM1): 0.017 nM

Cn1ncc(NC(=O)c2nc(-c3ccc(C(F)(F)F)cc3F)sc2N)c1[C@@H]1CC[C@@H](N)[C@@H](F)CO1 [Example 259, 5-amino-N-(5-((2S,5R,6R)-5-amino-6-fluorooxepan-2-yl)-1-methyl-1H-pyrazol-4-yl)-2-(2-fluoro-4-(trifluoromethyl)phenyl)thiazole-4-carboxamide]
Ki (PIM1; [3]): 0.01 nM

Cn1ncc(NC(=O)c2csc(-c3c(F)ccc4[nH]ccc34)n2)c1[C@@H]1CC[C@@H](N)[C@H](F)CO1 [Example 400, N-[5-[(2S,5R,6S)-5-amino-6-fluoro-oxepan-2-yl]-1-methyl-pyrazol-4-yl]-2-(5-fluoro-1H-indol-4-yl)thiazole-4-carboxamide]
Ki (PIM1; [3]): 0.011 nM

Cn1ncc(NC(=O)c2nc(-c3c(F)cccc3F)sc2N)c1[C@@H]1C[C@@H](F)[C@H](N)CCO1 (stereo in doubt) [Example 135, 5-amino-N-[5-(5-amino-4-fluoro-oxepan-2-yl)-1-methyl-pyrazol-4-yl]-2-(2,6-difluorophenyl)thiazole-4-carboxamide]
Ki (PIM1; [3]): 0.01 nM

CO[C@H]1CO[C@H](c2c(NC(=O)c3nc(-c4c(C)cccc4F)sc3N)cnn2C)CC[C@H]1N [Example 269, 5-amino-N-(5-((2S,5R,6R)-5-amino-6-methoxyoxepan-2-yl)-1-methyl-1H-pyrazol-4-yl)-2-(2-fluoro-6-methylphenyl)thiazole-4-carboxamide]
Ki (PIM1; [3]): 0.052 nM

Cn1ncc(NC(=O)c2nc(-c3cccc(F)c3F)sc2N)c1[C@@H]1CC[C@@H](N)[C@@H](F)CO1 [Example 181, 5-Amino-N-[5-[(2S,5R,6R)-5-amino-6-fluoro-oxepan-2-yl]-1-methyl-pyrazol-4-yl]-2-(2,3-difluorophenyl)thiazole-4-carboxamide]
Ki (PIM1; [3]): 0.004 nM

Cn1ncc(NC(=O)c2csc(-c3cccc(-c4cccc(Cl)c4F)c3F)n2)c1[C@@H]1CC[C@@H](N)[C@@H](F)CO1 [Example 249, N-(5-((2S,5R,6R)-5-amino-6-fluorooxepan-2-yl)-1-methyl-1H-pyrazol-4-yl)-2-(3′-chloro-2,2′-difluoro-[1,1′-biphenyl]-3-yl)thiazole-4-carboxamide]
Ki (PIM1; [3]): 0.533 nM

CO[C@H]1CO[C@H](c2c(NC(=O)c3nc(-c4cccc(F)c4F)sc3N)cnn2C)CC[C@H]1N [Example 219, 5-amino-N-(5-((2S,5R,6R)-5-amino-6-methoxyoxepan-2-yl)-1-methyl-1H-pyrazol-4-yl)-2-(2,3-difluorophenyl)thiazole-4-carboxamide]
Ki (PIM1; [3]): 0.05 nM

COc1ccc(-c2nc(C(=O)Nc3cnn(C)c3[C@@H]3CC[C@@H](N)[C@H](F)CO3)ccc2F)c(F)c1 [Example 226, N-(5-((2S,5R,6S)-5-amino-6-fluorooxepan-2-yl)-1-methyl-1H-pyrazol-4-yl)-5-fluoro-6-(2-fluoro-4-methoxyphenyl)picolinamide]
Ki (PIM1; [3]): 0.036 nM

COCCOc1cc(F)c(-c2nc(C(=O)Nc3cnn(C)c3[C@@H]3CC[C@@H](N)[C@H](F)CO3)ccc2F)c(F)c1 [Example 192, N-(5-((2S,5R,6S)-5-amino-6-fluorooxepan-2-yl)-1-methyl-1H-pyrazol-4-yl)-6-(2,6-difluoro-4-(2-methoxyethoxy)phenyl)-5-fluoropicolinamide]
Ki (PIM1; [3]): 0.023 nM

Cn1ncc(NC(=O)c2nc(-c3cc(Cl)ccc3F)sc2N)c1[C@@H]1CC[C@@H](N)[C@H](F)CO1 [Example 291, 5-amino-N-(5-((2S,5R,6S)-5-amino-6-fluorooxepan-2-yl)-1-methyl-1H-pyrazol-4-yl)-2-(5-chloro-2-fluorophenyl)thiazole-4-carboxamide]
Ki (PIM1; [3]): 0.018 nM

COc1ccc(F)c(-c2nc(C(=O)Nc3cnn(C)c3[C@@H]3CC[C@@H](N)[C@H](F)CO3)cs2)c1F [Example 229, N-(5-((2S,5R,6S)-5-amino-6-fluorooxepan-2-yl)-1-methyl-1H-pyrazol-4-yl)-2-(2,6-difluoro-3-methoxyphenyl)thiazole-4-carboxamide]
Ki (PIM1; [3]): 0.001 nM

Cn1ncc(NC(=O)c2csc(-c3cc(C4CC4)ccc3F)n2)c1[C@@H]1CC[C@@H](N)[C@H](F)CO1 [Example 310, N-(5-((2S,5R,6S)-5-amino-6-fluorooxepan-2-yl)-1-methyl-1H-pyrazol-4-yl)-2-(5-cyclopropyl-2-fluorophenyl)thiazole-4-carboxamide]
Ki (PIM1; [3]): 0.093 nM

CO[C@H]1CO[C@H](c2c(NC(=O)c3nc(-c4c(F)cccc4Cl)sc3N)cnn2C)CC[C@H]1N [Example 280, 5-amino-N-(5-((2S,5R,6R)-5-amino-6-methoxyoxepan-2-yl)-1-methyl-1H-pyrazol-4-yl)-2-(2-chloro-6-fluorophenyl)thiazole-4-carboxamide]
Ki (PIM1; [3]): 0.014 nM

Cn1ncc(NC(=O)c2nc(-c3c(F)cccc3F)sc2N)c1C1CC[C@@H](N)[C@@H](F)CO1 (stereo partly drawn) [Example 119, 5-amino-N-(5-((5R,6R)-5-amino-6-fluorooxepan-2-yl)-1-methyl-1H-pyrazol-4-yl)-2-(2,6-difluorophenyl)thiazole-4-carboxamide]
Ki (PIM1; [3]): 0.021 nM

Cc1cccnc1-c1nc(C(=O)Nc2cnn(C)c2[C@@H]2CC[C@@H](N)[C@H](F)CO2)c(N)s1 [Example 398, 5-amino-N-[5-[(2S,5R,6S)-5-amino-6-fluoro-oxepan-2-yl]-1-methyl-pyrazol-4-yl]-2-(3-methyl-2-pyridyl)thiazole-4-carboxamide]
Ki (PIM1; [3]): 0.004 nM

CN(C)C(=O)c1ccc(F)c(-c2nc(C(=O)Nc3cnn(C)c3[C@@H]3CC[C@@H](N)[C@H](F)CO3)cs2)c1F [Example 376, N-[5-[(2S,5R,6S)-5-amino-6-fluoro-oxepan-2-yl]-1-methyl-pyrazol-4-yl]-2-[3-(dimethylcarbamoyl)-2,6-difluoro-phenyl]thiazole-4-carboxamide]
Ki (PIM1; [3]): 0.727 nM

Cn1ncc(NC(=O)c2csc(-c3cnn(C4CC4)c3)n2)c1[C@@H]1CC[C@@H](N)[C@H](F)CO1 [Example 235, N-(5-((2S,5R,6S)-5-amino-6-fluorooxepan-2-yl)-1-methyl-1H-pyrazol-4-yl)-2-(1-cyclopropyl-1H-pyrazol-4-yl)thiazole-4-carboxamide]
Ki (PIM1; [3]): 0.068 nM

Cn1ncc(NC(=O)c2nc(-c3c(F)cccc3F)sc2N)c1[C@H]1OC[C@](C)(CN)CO1 [Example 175, 5-Amino-N-[5-[5-(aminomethyl)-5-methyl-1,3-dioxan-2-yl]-1-methyl-pyrazol-4-yl]-2-(2,6-difluorophenyl)thiazole-4-carboxamide]
Ki (PIM1; [3]): 0.036 nM
